Here are results for two compounds from US11021435B2, “Serotonin receptor-targeting compounds and methods” (priority 2014, dated 2021).

A word on the Ki: it is a measure of affinity in units of concentration, obtained from inhibition or displacement. Usually pKi stands for the Ki on a negative log10 scale, so that one unit is a factor of ten. A lower pKi goes with a high Ki. One may read the Emax as the size of the effect at its maximum, as opposed to the concentration needed. One may read the pEC50 as −log10 of the EC50, conventionally taken in molar units. A low value points to a large EC50.

pEC50, pKi: −log10 of the molar value. Entries after “also recorded” stand apart in the source; their conditions may differ. A value given as a limit tells only on which side of the number the result lay.

For data set [1], the target named is T1, 5-HT1A receptors (Homo sapiens, UniProt P08908).
T1 construct: expressed in transfected cells; host or cells: HEK293, transient
T1 sequence (P08908 1-422): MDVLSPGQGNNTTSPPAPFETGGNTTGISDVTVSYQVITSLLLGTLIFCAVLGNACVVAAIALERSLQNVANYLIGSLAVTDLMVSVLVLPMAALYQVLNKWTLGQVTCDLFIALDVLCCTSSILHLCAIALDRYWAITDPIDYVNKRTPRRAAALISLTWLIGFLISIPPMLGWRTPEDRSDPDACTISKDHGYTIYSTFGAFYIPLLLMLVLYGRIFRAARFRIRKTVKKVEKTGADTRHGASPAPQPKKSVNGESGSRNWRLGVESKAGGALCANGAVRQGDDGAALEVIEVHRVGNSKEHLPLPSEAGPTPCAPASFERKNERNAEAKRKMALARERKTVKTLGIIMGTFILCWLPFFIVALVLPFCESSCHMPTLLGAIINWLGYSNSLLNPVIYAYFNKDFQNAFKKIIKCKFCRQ
The data set is described as follows: Binding affinity, HEK293 cells transiently over-expressing human 5-HT1A.

Data set [2] deals with T2, 5-HT2C receptors (5-HT2C-INI) (Homo sapiens, UniProt P28335).
T2 construct: expressed in transfected cells; host or cells: HEK293, transient
T2 sequence (P28335 33-458): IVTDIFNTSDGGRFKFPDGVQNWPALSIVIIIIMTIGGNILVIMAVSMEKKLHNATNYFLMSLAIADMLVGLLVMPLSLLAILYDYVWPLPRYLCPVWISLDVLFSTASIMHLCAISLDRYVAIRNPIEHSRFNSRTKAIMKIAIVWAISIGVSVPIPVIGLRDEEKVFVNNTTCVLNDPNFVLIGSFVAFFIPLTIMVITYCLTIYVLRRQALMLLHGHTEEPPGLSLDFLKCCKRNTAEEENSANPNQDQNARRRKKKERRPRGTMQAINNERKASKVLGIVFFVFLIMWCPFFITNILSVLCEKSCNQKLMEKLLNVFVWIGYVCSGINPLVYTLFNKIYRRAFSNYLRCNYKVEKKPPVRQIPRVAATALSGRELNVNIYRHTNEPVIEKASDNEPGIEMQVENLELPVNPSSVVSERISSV
The data set is described as follows: Binding affinity, HEK293 cells transiently over-expressing human 5-HT2C. Particulars: human 5-HT2C-INI.

For data set [3], the target named is 5-HT2A (Homo sapiens, UniProt P28223). The data set is described as follows: Functional assay at 5-HT2A, relative to 5-HT. The following applies: for Functional activity at 5-HT2A, in words: no activation stated up to 100 μM. Also noted: expressed in transfected cells; host or cells: HEK293, transient. It is filed as cell-based.
Data set [4] addresses 5-HT2B (Homo sapiens, UniProt P41595). The data set is described as follows: Functional assay at 5-HT2B, relative to 5-HT. It is filed as cell-based. Also noted: expressed in transfected cells; host or cells: HEK293, transient. The following applies: for Functional activity at 5-HT2B, in words: up to 100 μM.
Data set [5] has as its target T1, 5-HT1A receptors. The data set is described as follows: Functional assay at 5-HT1A, relative to 5-CT. It is filed as cell-based.
Data set [6] relates to C58/J mice. The data set is described as follows: Idiopathic stereotypic jumping in C58/J mice. It is filed as in vivo. The following applies: 1 and 3 mg/kg.
Data set [7] relates to C57BI/6J mice. The data set is described as follows: MK-801-elicited stereotypic rotations in C57BI/6J mice. In kind it is in vivo. The text has this: (§1) Regarding glutamate neurotransmission in stereotypy, the NMDA receptor antagonist, MK-801, characteristically elicits stereotypic rotations that appear to mimic monogenetic stereotypy observed in Fmr1 KO mice. Furthermore, mutations and autoantibodies of the NMDA glutamate receptor that decrease its function are causally linked to ASD, intellectual disabilities, and psychiatric symptoms in humans.

Data set [8] deals with C57BI/6J mice. The data set is described as follows: MK-801-elicited hyperlocomotion in C57BI/6J mice. It is filed as in vivo. The following applies: 5.6 mg/kg; MK-801 0.3 mg/kg; 30 min session.
Text: Bar graphs show the mean±SEM.
as §1

Data set [9] concerns C57BI/6J mice. The data set is described as follows: d-amphetamine (AMP)-elicited hyperlocomotion in C57BI/6J mice. It is filed as in vivo. The following applies: 5.6 mg/kg; AMP 3 mg/kg; 30 min session.
Text: as §1

Data set [10] relates to C58/J and C57BI/6J mice. The data set is described as follows: Locomotor behavior of the compound on its own (stereotypy assays). It is filed as in vivo. The following applies: 1, 3 and 5.6 mg/kg. From the text: Data are from stereotypy assays using C58/J (left) and C57BI/6J (right) mice. […] Bar graphs show the mean±SEM.
The subject of data set [11] is C57BI/6J mice. The data set is described as follows: Social interactions with vehicle-treated littermates and grooming. It is filed as in vivo. The following applies: 5.6 mg/kg. From the text: Data are from C57BI/6J mice.
(§2) Of note, after behavioral testing was complete, blind scorers categorized mice into two groups based on number of rears and initiated social interactions, and the two groups differentiated vehicle from (+)-5-FPT-treated mice with 100% accuracy.

Data set [12] concerns mice. The data set is described as follows: Test for serotonin syndrome. The following applies: 5.6 mg/kg. It is filed as in vivo.
Text: as §2

Data set [13] in a line: Plasma and brain concentrations after subcutaneous administration. It is filed as in vivo, mice.
Where [14] appears, read: mean (SEM) sessions, score/6 possible.
Where [15] appears, read: 30 min after 3.0 mg/kg subcutaneous, mean (SEM).
Setting [16] is: 60 min after 3.0 mg/kg subcutaneous, mean (SEM).

Chain of 5-HT2A (P28223 whole entry): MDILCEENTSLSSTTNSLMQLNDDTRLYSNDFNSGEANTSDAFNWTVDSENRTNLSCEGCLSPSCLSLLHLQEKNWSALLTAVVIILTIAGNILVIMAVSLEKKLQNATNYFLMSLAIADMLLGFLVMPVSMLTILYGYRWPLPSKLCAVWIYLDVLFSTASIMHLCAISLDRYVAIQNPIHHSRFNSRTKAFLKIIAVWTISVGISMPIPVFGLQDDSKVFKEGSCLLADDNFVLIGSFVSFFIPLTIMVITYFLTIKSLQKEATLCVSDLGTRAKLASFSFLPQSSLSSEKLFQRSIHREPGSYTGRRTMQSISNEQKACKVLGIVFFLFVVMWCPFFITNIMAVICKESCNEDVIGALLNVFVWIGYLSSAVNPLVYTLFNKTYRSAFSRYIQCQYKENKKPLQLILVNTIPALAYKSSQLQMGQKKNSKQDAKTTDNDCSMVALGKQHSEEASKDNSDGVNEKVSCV
Chain of 5-HT2B (P41595 whole entry): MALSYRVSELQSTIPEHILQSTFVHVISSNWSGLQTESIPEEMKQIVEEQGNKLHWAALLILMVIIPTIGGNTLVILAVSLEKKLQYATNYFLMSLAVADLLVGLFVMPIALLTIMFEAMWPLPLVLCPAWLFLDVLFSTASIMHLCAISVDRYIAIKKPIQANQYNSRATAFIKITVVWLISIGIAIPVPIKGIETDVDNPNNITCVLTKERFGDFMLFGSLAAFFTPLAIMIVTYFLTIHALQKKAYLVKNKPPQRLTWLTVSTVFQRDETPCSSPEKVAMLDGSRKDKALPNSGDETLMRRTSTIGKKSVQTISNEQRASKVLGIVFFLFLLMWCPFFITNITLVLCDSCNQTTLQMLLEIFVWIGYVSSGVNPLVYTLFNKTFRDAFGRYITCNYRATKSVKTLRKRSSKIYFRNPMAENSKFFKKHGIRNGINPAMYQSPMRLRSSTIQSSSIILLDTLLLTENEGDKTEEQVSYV

Regarding `CN(C)C1CCc2c(cccc2-c2ccccc2F)C1` (single isomer, unassigned; (-)) [(−)-5-FPT, 5-(2′-fluorophenyl)-N,N-dimethyl-1,2,3,4-tetrahydronaphthalen-2-amine], the “Affinity at 5-HT1A receptors, in words” value in [1] was “no appreciable affinity”. Also, the Ki in [2] (bound given in μM) was more than 1 µM. The “Functional activity at 5-HT2A, in words” value in data set [3] was “did not activate”. Also, the “Functional activity at 5-HT2B, in words” value in data set [4] is reported as “did not activate”.

The compound `CN(C)C1CCc2c(cccc2-c2ccccc2F)C1` (single isomer, unassigned; (+)) [(+)-5-FPT, 5-(2′-fluorophenyl)-N,N-dimethyl-1,2,3,4-tetrahydronaphthalen-2-amine] had a pKi in data set [2] (mean (SEM)) of 6.57. Further, the “Functional activity at 5-HT1A, in words” value in data set [5] is recorded as “partial agonist”. Further, in data set [5] (read-out: EMAX 5-HT1A), the Emax stood at 48%. The Stereotypic jumping entry in [6] is reported as “potently eliminated stereotypic jumping; also recorded: dose-dependently eliminates”. In addition, the “Stereotypic rotational behavior, compound on its own” value in [7] is “neither (+)-5-FPT nor AMP caused stereotypic rotational behavior”. Moreover, the MK-801-elicited stereotypic rotations entry in data set [7] (5.6 mg/kg, MK-801 0.3 mg/kg) is recorded as “significantly reduced stereotypical rotations; also recorded: significantly reduces stereotypic rotations”. The MK-801 hyperlocomotion entry in data set [8] was “significantly decreased hyperlocomotion; also recorded: blocks”. For the same compound, the “Amphetamine (AMP) hyperlocomotion” value in data set [9] is “did not reduce hyperlocomotion; also recorded: did not significantly decrease hyperlocomotion”. Further, in [10], the “Locomotor behavior, compound on its own” value was “without altering locomotor behavior; also recorded: did not alter locomotion; also recorded: does not alter locomotor behavior”. In data set [11], the Grooming entry is on record as “decreasing grooming”. In addition, the Social interactions entry in [11] (six one-min observation sessions) was “significantly increased the number of initiated social interactions; also recorded: increases social interactions”. The “Flat Body” value in data set [12] (mean (SEM) number of sessions of six with the behavior (score/6 possible)) is 0(0). Moreover, in data set [12] (setting [14]), the “Forepaw Tread” value is 0(0), the “Head Weave” value is 0(0), the “Moon Walk” value is given as 0.3(0.2) and the Piloerection is 0(0). In addition, in data set [12] (setting [14]), the “Straub Tail” value is given as 0(0) and the Tremor is 0(0). Also, in [12] (highest behaviorally-effective dose tested), the “Symptoms of serotonin syndrome, in words” value was “did not result in symptoms of serotonin syndrome”. Also, the “Blood-brain barrier crossing, in words” value in [13] (30, 60 and 90 min after systemic administration) is reported as “readily crosses the blood-brain barrier”. For the same compound, in data set [13] (setting [15]), the Brain concentration is 1.78(0.24) μg/g and the Plasma concentration is listed as 0.114(0.03) μg/mL. In addition, in data set [13] (setting [16]), the Brain concentration is reported as 2.16(0.17) μg/g and the Plasma concentration is listed as 0.118(0.01) μg/mL. In data set [13] (90 min after 3.0 mg/kg subcutaneous, mean (SEM)), the Brain concentration was 1.46(0.09) μg/g. Moreover, the concentration at 90 min in data set [13] (mouse, plasma, 90 min after 3.0 mg/kg subcutaneous, mean (SEM)) stood at 70 ng/mL. Further, in data set [13] (plasma relative to brain tissue from 30 min post-administration), the “Clearance in the periphery, in words” value was “rapidly cleared in the periphery”. The same compound displayed a maximal response (Emax) in [3] (% of maximal response relative to 5-HT, mean (SEM)) of 39%. The compound further gave a pEC50 in data set [3] (mean (SEM)) of 5.45. In addition, the “Functional activity at 5-HT2A, in words” value in [3] was “very low potency, partial agonist”. Further, in [4] (Inactive = no activation up to 100 μM), the “EC50 5-HT2B” value is “Inactive”. Further, the “EMAX 5-HT2B” value in [4] (relative to 5-HT, Inactive = no activation up to 100 μM) is listed as “Inactive”. Moreover, in [4], the “Functional activity at 5-HT2B, in words” value is “devoid of 5-HT2B activity”.
